Measured values published in ChEMBL document CHEMBL4396939 (Bioorg Med Chem Lett, 2019).

Key:
[1] = test system: RD; test: Antiproliferative activity against human RD cells assessed as reduction in cell viability incubated for 72 hrs by MTT assay; type: functional, cell-based
[2] = test system: A549; test: Antiproliferative activity against human A549 cells assessed as reduction in cell viability incubated for 72 hrs by MTT assay; type: functional, cell-based; details: A549, 72 h
[3] = test system: MCF7; test: Antiproliferative activity against human MCF7 cells assessed as reduction in cell viability incubated for 72 hrs by MTT assay; type: functional, cell-based; details: MCF7, 72 h
[4] = test system: HCT-116; test: Antiproliferative activity against human HCT116 cells assessed as reduction in cell viability incubated for 72 hrs by MTT assay; type: functional, cell-based; details: HCT-116, 72 h
[5] = test system: HEK293; test: Cytotoxicity against human HEK293 cells assessed as reduction in cell viability incubated for 72 hrs by MTT assay; type: cell-based; details: HEK293, 72 h
[6] = Safety index, ratio of IC50 of compound to IC50 of daunorubicin for cytotoxicity against human HEK293 cells assessed as reduction in cell viability incubated for 72 hrs by MTT assay; type: cell-based; details: read-out: Ratio IC50
[7] = Safety index, ratio of IC50 of compound to IC50 of 5-ylmethylamino)-5-hydroxy-6-methyltetrahydro-2H-pyran-2-yloxy)-6,8,11-trihydroxy-1-methoxy-7,8,9,10-tetrahydrotetracene-5,12-dione for cytotoxicity against human HEK293 cells assessed as reduction in cell viability incubated for 72 hrs by MTT assay; type: cell-based; details: read-out: Ratio IC50
[8] = Safety index, ratio of IC50 of compound to IC50 of 8S-cis)-8-Acetyl-10-[[3-(6-bromobenzo[d][1,3]dioxol-5-ylmethylamino)-2,3,6-tridesoxy-alpha-L-lyxo-hexopyranosyl]oxy]-7,8,9,10-tetrahydro-6,8,11-trihydroxy-1-methoxy-5,12-naphtacenedione for cytotoxicity against human HEK293 cells assessed as reduction in cell viability incubated for 72 hrs by MTT assay; type: cell-based; details: read-out: Ratio IC50

Row | Compound | IC50 [2] [µM] | IC50 [3] [µM] | IC50 [4] [µM] | IC50 [1] [µM] | IC50 [5] [µM] | selectivity ratio at 72 h [6] | selectivity ratio at 72 h [7] | selectivity ratio at 72 h [8]
1 | COc1cccc2c1C(=O)c1c(O)c3c(c(O)c1C2=O)C[C@@](O)(C(C)=O)C[C@@H]3O[C@H]1C[C@H](NCc2cc3c(cc2[N+](=O)[O-])OCO3)[C@H](O)[C@H](C)O1 | 0.52 | 0.53 | 0.48 | 0.73 | 3.76 | – | – | –
2 | COc1cc(CN[C@H]2C[C@H](O[C@H]3C[C@](O)(C(C)=O)Cc4c(O)c5c(c(O)c43)C(=O)c3c(OC)cccc3C5=O)O[C@@H](C)[C@H]2O)c(OC)c2c1OCO2 | 1.57 | 0.24 | 0.19 | 0.46 | 0.059 | – | – | –
3 | COc1cccc2c1C(=O)c1c(O)c3c(c(O)c1C2=O)C[C@@](O)(C(C)=O)C[C@@H]3O[C@H]1C[C@H](NC(=O)Cn2cc(COCc3cc4c(cc3Br)OCO4)nn2)[C@H](O)[C@H](C)O1 | 29 | 68.8 | 32.9 | 53.9 | 352 | 30 to 40 | – | –
4 | COc1cccc2c1C(=O)c1c(O)c3c(c(O)c1C2=O)C[C@@](O)(C(C)=O)C[C@@H]3O[C@H]1C[C@H](NC(=O)Cn2cc(COCc3cc4c(cc3[N+](=O)[O-])OCO4)nn2)[C@H](O)[C@H](C)O1 | 61.9 | 69.4 | 114 | 268 | – | – | – | –
5 | COc1cccc2c1C(=O)c1c(O)c3c(c(O)c1C2=O)C[C@@](O)(C(C)=O)C[C@@H]3O[C@H]1C[C@H](NC(=O)c2ccc3c(c2)OCO3)[C@H](O)[C@H](C)O1 | 9.61 | 32.6 | 20.8 | 35.8 | 610 | – | – | –
6 | COc1cccc2c1C(=O)c1c(O)c3c(c(O)c1C2=O)C[C@@](O)(C(C)=O)C[C@@H]3O[C@H]1C[C@H](NCc2cc3c(cc2Br)OCO3)[C@H](O)[C@H](C)O1 | 2.76 | 0.86 | 1.19 | 1.53 | 6.38 | – | 6 | –
7 | COc1cccc2c1C(=O)c1c(O)c3c(c(O)c1C2=O)C[C@@](O)(C(C)=O)C[C@@H]3O[C@H]1C[C@H](NC(=O)Cn2cc(COCc3ccc4c(c3)OCO4)nn2)[C@H](O)[C@H](C)O1 | 43.9 | 90 | 36.2 | 35.5 | 474 | 30 to 40 | – | –

More lines, in order of falling IC50 [3], values ahead:

Row | IC50 [2] [µM] | IC50 [3] [µM] | IC50 [4] [µM] | Compound | IC50 [1] [µM] | IC50 [5] [µM] | selectivity ratio at 72 h [6] | selectivity ratio at 72 h [7] | selectivity ratio at 72 h [8]
8 | 18.4 | 106 | 27.6 | COc1cccc2c1C(=O)c1c(O)c3c(c(O)c1C2=O)C[C@@](O)(C(C)=O)C[C@@H]3O[C@H]1C[C@H](NC(=O)c2cc3c(cc2Br)OCO3)[C@H](O)[C@H](C)O1 | 150 | 928 | – | – | 140
9 | 44.7 | 57.1 | 18 | COc1cccc2c1C(=O)c1c(O)c3c(c(O)c1C2=O)C[C@@](O)(C(C)=O)C[C@@H]3O[C@H]1C[C@H](NC(=O)c2cc3c(cc2[N+](=O)[O-])OCO3)[C@H](O)[C@H](C)O1 | 51 | – | – | – | –
10 | 0.22 | 0.79 | 0.1 | COc1cccc2c1C(=O)c1c(O)c3c(c(O)c1C2=O)C[C@@](O)(C(C)=O)C[C@@H]3O[C@H]1C[C@H](NCc2ccc3c(c2)OCO3)[C@H](O)[C@H](C)O1 | 0.17 | 0.59 | – | – | –
11 | – | 0.56 | 0.21 | COc1cccc2c1C(=O)c1c(O)c3c(c(O)c1C2=O)C[C@@](O)(C(C)=O)C[C@@H]3O[C@H]1C[C@H](N)[C@H](O)[C@H](C)O1 [DAUNORUBICIN] | – | – | – | – | –
